Data taken from patent US20070134660A1, “Methods for identifying modulators of kinesin activity” (ROSETTA INPHARMATICS LLC, priority 2003, published 2007).

What was measured:
[1] = target: T1, KIF14 V342-K720 MD protein (SEQ ID NO:4) (Homo sapiens, UniProt Q15058); test: KIF14 motor domain microtubule-dependent ATPase assay (Quinaldine Red); type: biochemical; conditions: n = 2
T1 construct: made in house; host or cells: E. coli BL21 (DE3)
T1 sequence (Q15058 with tags, fused parts or gaps): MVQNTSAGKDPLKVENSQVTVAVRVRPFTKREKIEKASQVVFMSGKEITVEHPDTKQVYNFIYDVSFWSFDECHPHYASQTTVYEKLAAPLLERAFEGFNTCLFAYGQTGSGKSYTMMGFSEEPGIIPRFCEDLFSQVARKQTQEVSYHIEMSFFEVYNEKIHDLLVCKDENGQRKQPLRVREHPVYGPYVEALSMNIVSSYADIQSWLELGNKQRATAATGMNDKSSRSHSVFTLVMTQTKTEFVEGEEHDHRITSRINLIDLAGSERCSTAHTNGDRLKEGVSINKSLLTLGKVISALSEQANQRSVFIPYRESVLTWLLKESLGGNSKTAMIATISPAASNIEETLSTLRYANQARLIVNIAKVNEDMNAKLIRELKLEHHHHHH
Method: KIF14 Motor Domain Assay: KIF14 MDs were assayed for microtubule (MT)-dependent ATP hydrolysis by measuring the rate of inorganic phosphate (Pi) release using the dye Quinaldine Red, which absorbs light of 540 nm when bound to Pi. Assays (50 microliters) contained 50 mM K-PIPES pH 6.9 (which contains 90 mM KCl), 1 mM EGTA pH 8.0, 1 mM DTT, 100 micrograms/mL BSA, 2 mM MgCl2, 1 mM Na-ATP pH 7.0, 0.25-5 micromolar MT (which contain equimolar amounts of Taxol®), and 20-200 nM KIF14 MD enzyme. Reactions were initiated by the addition of enzyme and allowed to proceed at room temperature until they were quenched at regular time intervals by the addition of 50 microliters of 1.8 M KCl, 50 mM EDTA. To this was added 150 microliters of the Quinaldine Red dye solution (0.07 mg/mL quinaldine red, 0.09% polyvinyl alcohol, 4.1 mM ammonium molybdate, and 380 mM H2SO4). After 10 min incubation at room temperature, absorbance at 540 nm was read on a Molecular Devices Microtiter plate reader. Rates were calculated using the linear (steady-state) phase of the reaction.
Suitability of K14 Motor Domains for high-throughput screening: The motor domain assay was as described above, using 50 mM MES pH 6.0, 20 mM added KCl, 0.5 micromolar MTs, a temperature of 37° C., and varying enzyme concentration from 0 to 10 nM. The signal to background ratio, calculated as the amount of Pi formed after a 90 minute incubation in the presence of enzyme relative to in the absence of enzyme, was determined using different concentrations of the V342-K720 motor domain (SEQ ID NO:4), and is shown in Table 9. A high enough signal over background was obtained at low enzyme concentrations to allow high-through-put screening (HTS). Moreover, the V342-K720 motor domain (SEQ ID NO:4) was stable in the reaction for at least 90 minutes.
Screen for KIF14 Modulators: The ATPase assay described in EXAMPLE 7, as optimized in EXAMPLE 8, was used to screen for compounds that modulated the activity of the KIF14 V342-K720 MD protein (SEQ ID NO:4).

KIF3A (SEQ ID NO:16) = target: T2, KIF3A (SEQ ID NO:16) (Homo sapiens, UniProt Q9Y496); test: KIF3A motor domain ATPase assay; type: biochemical; conditions: n = 2
T2 construct: His6 (printed only as 'H')

CENP-E (SEQ ID NO:19) = target: T3, CENP-E (SEQ ID NO:19) (Homo sapiens, UniProt Q02224); test: CENP-E motor domain ATPase assay; type: biochemical; conditions: read-out: uKHC, nKHC, CENP-E, MKLP-1, KIF1B, MCAK ATPase IC50
T3 construct: His6 (printed only as 'H')
T3 sequence (Q02224 with tags, fused parts or gaps): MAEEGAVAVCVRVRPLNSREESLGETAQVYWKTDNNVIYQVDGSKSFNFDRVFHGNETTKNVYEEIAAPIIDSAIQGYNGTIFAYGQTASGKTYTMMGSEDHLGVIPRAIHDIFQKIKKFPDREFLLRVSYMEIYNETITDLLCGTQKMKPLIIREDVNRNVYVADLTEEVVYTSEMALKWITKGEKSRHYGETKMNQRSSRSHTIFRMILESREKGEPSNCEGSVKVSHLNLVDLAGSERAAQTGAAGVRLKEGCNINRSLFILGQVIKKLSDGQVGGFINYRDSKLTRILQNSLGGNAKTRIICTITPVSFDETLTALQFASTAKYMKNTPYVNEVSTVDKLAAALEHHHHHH

MCAK (SEQ ID NO:22) = MCAK (SEQ ID NO:22) (Homo sapiens, UniProt Q99661); test: MCAK motor domain ATPase assay; type: biochemical; conditions: read-out: uKHC, nKHC, CENP-E, MKLP-1, KIF1B, MCAK ATPase IC50
A2780 cells = test: alamarBlue cell growth assay, candidate KIF14 modulators in A2780 cells; type: cell-based; conditions: Homo sapiens, 48 hour incubation; for EC50: read-out: EC50 (nM), Growth Inhibition in A2780 Cells; for inhibition at 0.0137 µM: [Compound] 13.7 nM; for inhibition at 0.0141 µM: [Compound] 14.1 nM; for inhibition at 0.123 µM: [Compound] 123 nM; for inhibition at 0.37 µM: [Compound] 370 nM; for inhibition at 1.111 µM: [Compound] 1111 nM; for inhibition at 3.333 µM: [Compound] 3333 nM; for inhibition at 10 µM: [Compound] 10000 nM
Method: alamarBlue™ Assay for Cell Growth: The alamarBlue™ assay is a measure of cellular respiration and is used as a measure of live cell number. The internal environment of the proliferating cell is more reduced than that of non-proliferating cells. Specifically, the ratios of NADPH/NADP, FADH/FAD, FMNH/FMN, and NADH/NAF increase during proliferation. alamarBlue™ can be reduced by these metabolic intermediates and, therefore, can be used to monitor cell proliferation.
A2780 cells were plated at a density of 4000/cells per well in RPMI1640 (containing 10% FBS, 1% Pen/Strep, 0.01 mg/ml insulin) in a 96-well plate (Costar, Cat. No. 3606) 16 hours prior to treatment. A compound dilution plate was prepared from a 10 mM stock solution using a 3-fold serial dilution series in DMSO. A 1.2 microliter aliquot of each concentration was transferred into 0.6 ml of medium. A 100 microliter aliquot of each concentration was added to the appropriate wells already containing 100 microliters of compound-free medium. After a 48 hour incubation at 37° C., 20 microliters of alamarBlue™ was added to each well (10% vol/vol). After an additional 6 hour incubation at 37° C., the plates were read on a spectrofluorimeter SpectroMax Gemini (excitation 544 nm, emission 590 nm). The background value (averaged from wells with no cells) was subtracted from each reading.

T2 sequence (Q9Y496 with tags, fused parts or gaps): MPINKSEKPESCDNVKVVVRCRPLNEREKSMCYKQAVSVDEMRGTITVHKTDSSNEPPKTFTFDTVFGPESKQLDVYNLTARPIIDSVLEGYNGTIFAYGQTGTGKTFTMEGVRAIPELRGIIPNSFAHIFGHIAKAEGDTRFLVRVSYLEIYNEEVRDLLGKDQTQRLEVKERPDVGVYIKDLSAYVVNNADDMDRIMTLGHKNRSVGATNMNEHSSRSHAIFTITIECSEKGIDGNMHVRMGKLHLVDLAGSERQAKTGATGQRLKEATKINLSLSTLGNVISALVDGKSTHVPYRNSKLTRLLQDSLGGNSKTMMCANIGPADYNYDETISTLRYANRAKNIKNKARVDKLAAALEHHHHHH
Chain of MCAK (SEQ ID NO:22) (Q99661 183-646): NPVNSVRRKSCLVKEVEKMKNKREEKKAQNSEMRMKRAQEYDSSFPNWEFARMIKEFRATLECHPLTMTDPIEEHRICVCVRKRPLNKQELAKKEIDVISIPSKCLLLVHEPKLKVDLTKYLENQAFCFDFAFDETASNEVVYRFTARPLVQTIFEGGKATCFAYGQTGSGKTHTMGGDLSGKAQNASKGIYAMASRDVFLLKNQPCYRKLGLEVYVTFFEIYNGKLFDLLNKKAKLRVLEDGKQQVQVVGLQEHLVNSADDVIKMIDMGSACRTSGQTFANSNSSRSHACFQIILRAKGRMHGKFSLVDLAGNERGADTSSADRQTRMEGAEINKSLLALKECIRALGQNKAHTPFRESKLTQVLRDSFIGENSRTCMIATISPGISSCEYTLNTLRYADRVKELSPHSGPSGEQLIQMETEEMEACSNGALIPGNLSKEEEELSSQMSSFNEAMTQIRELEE

| IC50 [1] | IC50 (KIF3A (SEQ ID NO:16)) | IC50 (CENP-E (SEQ ID NO:19)) | IC50 (MCAK (SEQ ID NO:22)) | EC50 (A2780 cells) | SMILES | inhibition at 0.0137 µM (A2780 cells) | inhibition at 0.0141 µM (A2780 cells) | inhibition at 0.123 µM (A2780 cells) | inhibition at 0.37 µM (A2780 cells) | inhibition at 1.111 µM (A2780 cells) | inhibition at 3.333 µM (A2780 cells) | inhibition at 10 µM (A2780 cells) |
| --- | --- | --- | --- | --- | --- | --- | --- | --- | --- | --- | --- | --- |
| 0.895 µM | 31 µM | > 40 µM | > 40 µM |  | CC(C)c1ccc(/C=N/NC(N)=S)cc1 [compound 2, 4-isopropylbenzaldehyde thiosemicarbazone] |  |  |  |  |  |  |  |
| 0.076 µM | 0.699 µM | > 40 µM | > 40 µM | 3600 nM | NC(=S)N/N=C/c1ccc(C2CCCCC2)cc1 [compound 3, 4-cyclohexylbenzaldehyde thiosemicarbazone] | -5.3% | -8.1% | -10.4% | 7.8% | 6% | 39.8% | 107% |
| 0.054 µM | 1.55 µM | > 40 µM | > 40 µM | 7980 nM | CC(C)c1ccc(/C=N/NC(N)=S)cc1[N+](=O)[O-] [compound 4, 4-isopropyl-3-nitrobenzaldehyde thiosemicarbazone] | -7% | -4% | -9.2% | 4.4% | 7.5% | 25% | 61.8% |

| SMILES | IC50 [1] | IC50 (KIF3A (SEQ ID NO:16)) | IC50 (CENP-E (SEQ ID NO:19)) | IC50 (MCAK (SEQ ID NO:22)) | EC50 (A2780 cells) | inhibition at 0.0137 µM (A2780 cells) | inhibition at 0.0141 µM (A2780 cells) | inhibition at 0.123 µM (A2780 cells) | inhibition at 0.37 µM (A2780 cells) | inhibition at 1.111 µM (A2780 cells) | inhibition at 3.333 µM (A2780 cells) | inhibition at 10 µM (A2780 cells) |
| --- | --- | --- | --- | --- | --- | --- | --- | --- | --- | --- | --- | --- |
| NC(=S)N/N=C\c1ccc(-c2ccccc2)cc1 [compound 1, 1,1′-biphenyl-4-carbaldehyde thiosemicarbazone] | 0.182 µM | 0.631 µM | > 40 µM | > 40 µM | > 10000 nM | -4.5% | 11.6% | -10.3% | 19% | 18.7% | 23.6% | 31.3% |
